Reference: patent publication US10988737B2, “Clinical gene signature-based human cell culture model and uses thereof” (priority 2015, dated 2021)
“Also recorded” adds a separate entry of the source.

Columns and labels:
HCV Jc1 = experiment: HCV viral load in HCV Jc1-infected Huh7.5.1dif cells (qRT-PCR of intracellular HCV RNA); format: cell-based; settings: for effect on HCV viral load: HCV-infected Huh7.5.1dif cells, at the concentrations that suppress the signature
Protocol: HCV Infection of Huh7.5.1^dif cells. Cell culture-derived HCVcc Jc1 (genotype 2a/2a) (Pietschmann et al., PNAS USA, 2006, 103: 7408-7413) were generated in Huh7.5.1 cells as previously described (Wakita et al., Nat. Med., 2005, 11: 791-796). HCV Jc1E2^FLAG was purified using anti-FLAG M2 affinity gel (Sigma-Aldrich, St.Louis, Mo., USA) as described (Merz et al., J. Biol. Chem., 2011, 286: 3018-3032). HCVcc infectivity was determined by calculating the 50% tissue culture infectious doses (TCID50) as previously described (Lindenbach et al., Science, 2005, 309: 623-626). Huh7.5.1^dif cells were infected with HCV Jc1 or HCV Jc1E2^FLAG. Cell culture supernatants from mock-electroporated cells or 100 μg/mL of FLAG peptide were used for control experiments. HCV infection was assessed by qRT-PCR of intracellular HCV RNA (Xiao et al., PLoS Pathog., 2014, 10: e1004128) as well as immunostaining using HCV E2-specific AP33 antibody as previously described (Krieger et al., Hepatology, 2010, 51: 1144-1157).

[1] = test system: HCC risk signature in HCV Jc1-infected Huh7.5.1^dif cells; experiment: HCC risk signature in HCV Jc1-infected Huh7.5.1dif cells after antiviral or EGFR/MAPK pathway inhibitor treatment; format: cell-based, human; settings: three days treatment from day 7 post-infection
Protocol: HCV Infection of Huh7.5.1^dif cells. […] Huh7.5.1^dif cells were infected with HCV Jc1 or HCV Jc1E2^FLAG. […] HCV infection was assessed by qRT-PCR of intracellular HCV RNA (Xiao et al., PLoS Pathog., 2014, 10: e1004128) as well as immunostaining using HCV E2-specific AP33 antibody as previously described (Krieger et al., Hepatology, 2010, 51: 1144-1157).
Transcriptional Analyses. Liver cells were lysed in TRI-reagent (Molecular Research Center; Cincinnati, Ohio, USA), and RNA was purified using Direct-zol RNA MiniPrep (Zymo Research, Irvine, Calif., USA) according to manufacturer's instructions. RNA quantity and RNA quality were assessed using NanoDrop (Thermo Scientific, Waltham, Mass., USA) and Bioanalyzer 2100 (IIlumina, San Diego, Calif., USA) with a quality cut-off of RNA Integrity Number >8. […] Gene expression profiling was performed using 250-500 ng total RNA by using either NCOUNTER Digital Analyzer system (NanoString) or the HumanHT-12 beadarray (Illumina, San Diego, Calif., USA). HCC high risk gene expression was analyzed by qRT-PCR using specific TaqMan Gene Expression Assays (Life Technologies, Carlsbad, Calif., USA) or the ANXA3 and GPX2 primer sets previously described (Pan et al., Stem Cells, 2015, 33: 354-366 and Brault et al., Gut, 2014, 65: 44-54, respectively). The expression of GAPDH mRNA was analyzed as a reference gene using a specific TaqMan Gene Expression Assay (Life Technologies, Carlsbad, Calif., USA) or the RT2 qPCR Primer Assay (Qiagen, Hilden, Germany). Relative gene expression level was calculated by the ΔΔCt method as previously described (Schmittgen et al., Nat. Protoc., 2008, 3: 1101-1108).
Bioinformatics. Induction or suppression of HCC risk signature in HumanHT-12 beadarray (Illumina, San Diego, Calif., USA) data was determined as previously reported by using Nearest Template Prediction algorithm and Gene Set Enrichment Analysis (GSEA), implemented in GenePattern genomic analysis toolkits (Subramanian et al., PNAS USA, 2005, 102: 15545-15550; Hoshida, PLoS One, 2010, 5: e15543; Reich et al., Nat. Genet., 2006, 38: 500-501). Molecular pathway deregulations were determined in Molecular Signature Database (MSigDB, ver.4.0) (Liberzon et al., Bioinformatics, 2011, 27: 1739-1740) using GSEA (Subramanian et al., PNAS USA, 2005, 102: 15545-15550).

ERK1/2 = experiment: Proteome Profiler Human Phospho-kinase Array in HCV-infected liver cells; format: cell-based; settings: low inhibitor concentrations
Protocol: Proteomic Analyses. For proteomic analyses, Huh7.5.1^dif cells that had undergone DMSO-mediated differentiation, were infected with HCV Jc1E2^FLAG (TCID50=10^7/mL) as described above. On day 7, receptor tyrosine kinase (RTK) phosphorylation was assessed in cell lysates using the Human Phospho-RTK Array Kit as previously described (Lupberger et al., Nat. Med., 2011, 17: 589-595; and Zona et al., Cell Host Microbe, 2013, 13: 302-313). The effect of MAPK inhibitors on signaling was confirmed using the Proteome Profiler Human Phospho-kinase Array according to manufacturer's instructions (R&D Systems). Amounts of phospho-proteins were assessed using a horseradish peroxidase-conjugated pan-phospho-tyrosine-specific antibody (R&D Systems, Minneapolis, Minn., USA) followed by chemiluminescence detection (GE Healthcare, Cleveland, Ohio, USA) according to manufacturer's instructions. The relative dot-blot density of the phosphorylated proteins in HCV Jc1E2^FLAG infected samples compared to non-infected controls was quantified using Image J software (NIH) by elliptical selection of individual dots and measuring standard deviation and integrated density.

[2] = test system: PLS/HCC high risk genes in HCV-infected or ethanol exposed Huh7.5.1^dif cells or HBV-infected HepG2-NTCP cells; experiment: Epigenetic inhibitors: 32-gene PLS/HCC risk signature in infected or ethanol-treated liver cells; format: cell-based, human; settings: iBET 0.05 μM, WDR5-0103 100 μM
Protocol: HCV infection was assessed at day 10 by qRT-PCR of intracellular RNA as described (Xiao et al., PLoS pathogens. 2014, 10(5): e1004128).
(§1) HBV infection was assessed at day 10 post-infection by qRT-PCR quantification of HBV pregenomic RNA (pgRNA) as described in (Verrier et al., Hepatology, 2015, 63: 35-48).
Fresh medium containing ethanol and antibodies was replenished daily (Ye et al., Drug Alcohol Depend., 2010, 112: 107-116).
(§2) Transcriptional analyses. Ten days after HCV Jc1 and HBV infection or ethanol exposure, cultures were lysed using TRI-reagent (MRC) and RNA purified using the Directzol mini kit (Zymo Research). Gene expression profiling was performed using 250-500 ng total RNA by using either NCOUNTER Digital Analyzer system (NanoString) or high throughput qRT-PCR Biomark HD (Baker, Nature Meth., 2012, 9: 541-544) […]. Induction or suppression of HCC risk signature was determined by Gene Set Enrichment Analysis (GSEA), implemented in GenePattern genomic analysis toolkits.

[3] = test system: PLS/HCC high risk genes in HBV-infected HepG2-NTCP cells; experiment: Epigenetic inhibitors: 32-gene PLS/HCC risk signature in HBV-infected HepG2-NTCP cells; format: cell-based; settings: only in HBV infected cells; C646 10 μM
Protocol: as §1, §2

[4] = test system: HCC high-risk genes in human fibrotic liver tissue; experiment: Organotypic ex vivo culture of surgically resected human fibrotic liver tissue slices, PLS/HCC risk signature by GSEA; format: cell-based; settings: erlotinib 5 μM, pioglitazone 10 μM
Protocol: Liver Slices. Fresh liver tissue sections (300 μm-thick) were prepared from surgically resected fibrotic livers from HCC patients using Krumdieck Tissue Slicer MD6000 (Alabama Research and Development, Munford, Ala., USA).
Transcriptional Analyses. Liver cells were lysed in TRI-reagent (Molecular Research Center; Cincinnati, Ohio, USA), and RNA was purified using Direct-zol RNA MiniPrep (Zymo Research, Irvine, Calif., USA) according to manufacturer's instructions. RNA quantity and RNA quality were assessed using NanoDrop (Thermo Scientific, Waltham, Mass., USA) and Bioanalyzer 2100 ([…]) with a quality cut-off of RNA Integrity Number >8. […] HCC high risk gene expression was analyzed by qRT-PCR using specific TaqMan Gene Expression Assays (Life Technologies, Carlsbad, Calif., USA) or the ANXA3 and GPX2 primer sets previously described (Pan et al., Stem Cells, 2015, 33: 354-366 and Brault et al., Gut, 2014, 65: 44-54, respectively). The expression of GAPDH mRNA was analyzed as a reference gene using a specific TaqMan Gene Expression Assay (Life Technologies, Carlsbad, Calif., USA) or the RT2 qPCR Primer Assay (Qiagen, Hilden, Germany). Relative gene expression level was calculated by the ΔΔCt method as previously described (Schmittgen et al., Nat. Protoc., 2008, 3: 1101-1108). […]

Compound	HCC high-risk gene expression [1]	effect on HCV viral load (HCV Jc1)	PLS/HCC high risk gene expression [2]	other results
Interferon-alpha 2a	partial suppression			decrease of viral load (HCV Jc1; HCV Jc1-infected Huh7.5.1dif cells, three days treatment from day 7, 10 IU/mL interferon-alpha 2a or 1 nM daclatasvir + 1 μM sofosbuvir): about 100 fold; HCC low-risk gene expression [1]: restoration
Nc1[nH]nc2nnc(-c3c(-c4ccccc4)nn4ccccc34)cc12 [Fr180204]	suppressed	absent effects		ERK1/2 phosphorylation (virus-induced MAPK signaling) (ERK1/2): reduced
COC(=O)c1ccc(N2CCN(C)CC2)c(NC(=O)c2cccc(OC)c2)c1 [WDR5-0103]			suppressed	
iBET			suppressed	
CC1=NN(c2ccc(C(=O)O)cc2)C(=O)/C1=C\c1ccc(-c2cc(C)c(C)cc2[N+](=O)[O-])o1 [C646]				PLS/HCC high risk genes [3]: suppressed
C#Cc1cccc(Nc2ncnc3cc(OCCOC)c(OCCOC)cc23)c1 [Erlotinib]	suppressed	did not modify		PLS / HCC high-risk genes in ex vivo liver tissue [4]: effectively suppress; also recorded: reverted
